Measured values published in patent US6599499B1, “Uses of diterpenoid triepoxides as an anti-proliferative agent” (priority 1999, dated 2003).
Values joined by “and” are separate entries in the source; they are usually repeats but may differ in a detail not shown here. Equal entries are not always repeated. “Also recorded” adds a separate entry of the source.

Key:
HT1080 cells = test: Cell viability by trypan blue exclusion, HT1080 cells (Example 5)
Protocol: Cell Viability Assay. HT-1080 cells were seeded into 6-well plates at 2×10^5 per well the day before the treatment. For the inducible expression of exogenous p21 and LacZ, the stable transfectants were cultured in the presence of 5 μM ponasterone A for 16 h. […] The cells were untreated or treated with doxorubicin, triptolide, or the combination of both at indicated dosages for 8 h at 37° C. Subsequently, the medium was replaced with new media plus 5 μM ponasterone A. After 16 h incubation at 37° C., the number of viable cells within the same fields were determined by trypan blue exclusion with a 2% trypan blue solution.

p53 translation = p53 translation by [35S]methionine metabolic labeling of MCF-7 cells; type: cell-based, human; conditions: MCF-7, triptolide 20 ng/ml pretreatment 6 h
Protocol: Metabolic labeling of MCF-7cells. Cells were grown to 80% confluence followed by pretreatment with triptolide (20 ng/ml) for 6 h in the appropriate medium. Cells were washed twice with short-term labeling medium (RPMI with 5% dialyzed FCS supplemented with L-glutamine, penicillin, and streptomycin). To deplete intracellular pools of methionine short-term labeling medium was added for 15 min at 37° C., then replaced by short-term labeling medium containing 0.1 mCi/ml [^35S] methionine (Amersham, Inc.). Cells were labeled for 30 min at 37° C. and washed with ice-cold PBS before harvesting for immunoprecipitation. The cells were lysed using RIPA buffer supplemented with protease inhibitors and immunoprecipitated using an agarose-conjugated p53 mAb (Ab-6, Oncogene Research Products) followed by 10% SDS-PAGE. The intensity of labeled p53 protein was measured by NIH Image 1.62.

Dx5 cells = test: Cell survival of Bcl-2 or vector transfected Dx5 cells (X-gal staining); type: cell-based, human; conditions: PG490 20 ng/ml, 36 h
Protocol: Cells were cultured in the appropriate medium with 10% FCS supplemented with L-glutamine, penicillin and streptomycin. To examine the effect of Bcl-2 on cell survival, the Bcl-2 expression vector or the vector alone was co-transfected with a β galactosidase expression vector (Invitrogen, Carlsbad, Calif.) at a 5:1 ratio using lipofectamine plus (GIBCO BRL, Gaithersburg, Md.) into Dx5 cells. After 36 h cells were stained with 5-bromo4-chloro-3-indolyl □-D-galactopyranoside (X-gal). Cell survival was calculated as number of total cells-blue cells/total number of cells in a 90 mm^2 area from duplicate plates and expressed as the mean ±S.D.
Bcl-2 or vector control was transiently transfected into Dx5 cells followed by the addition of PG490 (20 ng/ml) and stained 36 h later with X-gal. % cell survival was calculated as total cells-blue cells/total cells×100. z-VAD.fmk (100 µM) was added to Dx5 cells 1 h prior to the addition of PG490 (20 ng/ml) and cells were harvested for analysis of cell viability 36 h later by annexin and propidium iodide staining followed by FACS analysis. Data represents the mean of three replicates from two independent experiments ±S.D.

p53 null (−/−) MEFs = test: Cell viability of p53-/- mouse embryonic fibroblasts; conditions: Fibroblast, read-out: reduction of cell viability
Protocol: Cell culture and luciferase assay. A549 (non-small cell lung cancer), HT-1080 (fibrosarcoma), and MCF-7 (breast cancer) cells were cultured in the appropriate media with 10% FCS supplemented with L-glutamine, penicillin, and streptomycin. p53 wild-type (+/+) and null (−/−) Mouse Embryonic Fibroblasts (MEFs) transfected with the E1A/Ras were grown in DMEM containing 15% FCS supplemented with L-glutamine, penicillin, and streptomycin. Transfections were done on MCF-7 cells using the lipofectamine Plus reagent. At 24 hours after transfection, MCF-7 cells were left untreated or treated with triptolide (20 ng/ml) or doxorubicin (100 nM) for 4, 8, and 16 hours and cells were collected for luciferase assay. Luciferase activity was measured in samples with equal protein concentration with a Luminometer (Analytical Luminescence Laboratory, San Diego, Calif.).
Cell viability assay. Cell viability was measured by an 3-(4,5-dimethylthiazol-2-yl)-2,5-diphenyltetrazolium bromide (MTT) assay as described above. Untreated or cells treated with triptolide and/or doxorubicin were harvested at the indicated times followed by the addition of MTT to the cells in a 96-well plate. Cells were solubilized with […] acidified with 0.1N HCl. The 96-plate was read at a wavelength of 590 nm on an iEMS Labsystems plate reader.

p21 = p21 protein level by immunoblot in MCF-7 cells; type: cell-based, human; conditions: triptolide-treated MCF-7 cells
Protocol: Immunoblotting. At 8 hours after triptolide and/or doxorubicin treatment cells were harvested at the times indicated and lysed using HNET buffer (50 mM HEPES pH 7.5, 100 mM NaCl, 1 mM EGTA, and 1% Triton X-100) supplemented with 1 mM DTT, 1 mM PMSF and protease inhibitors cocktail (Boehringer Mannheim, Germany). 35 μg of protein was loaded on 10% SDS-PAGE followed by transferring to PVDF membrane. Immunoblotting was performed as previously described using a p53 mouse monoclonal antibody from Oncogene Research Products (Lee et al. (1999) J Biol Chem 274:13451-5).
Immunoblot analysis using other antibodies was performed as described above. The band intensity was measured by NIH Image 1.62.

H23 tumor cells = test: Nude mouse xenograft, prevention of H23 tumor formation; type: in vivo, nude mice
Protocol: Nude mouse xenograft model. […] Tumor cells were grown and harvested as described above.
PG490-88 prevents human tumor development in nude mice. The results reported above show cytotoxicity of PG490 on tumor cells in vitro. To extend these studies to an in vivo setting using human tumor cell xenografts, PG490-88 was used, a more easily administered, water soluble prodrug of PG490. H23 tumor cells were implanted intradermally in nude mice and the animals were left untreated or were injected IP daily with PG490-88 starting at the time of implantation. Tumors arose in 5/5 of the untreated mice but no tumors were observed after 5 or 7 weeks of dosing with PG490-88 at doses ranging from 0.25 to 0.75 mg/kg/day (Table 1). PG490-88 treatment was stopped after week 5 in 3 mice per group and was continued for an additional 2 weeks in 2 mice per group. A visible tumor arose during the sixth week in one animal in each group in which PG490-88 dosed at 0.5 mg/kg/day or less was stopped but no more visible tumors appeared in these groups after week 6 (Table 1).
Nude mice were implanted with H23 tumor cells (day 0). Mice were left untreated, or were injected IP with PG490-88 daily from the day of tumor cell implantation for 5 consecutive days per week. PG490-88 was administered for 5 weeks. The untreated group consisted of 5 mice. Three mice in each of the treatment groups received PG490-88 for 5 weeks, and 2 mice in each of these groups were given PG490-88 for 2 additional weeks (7 weeks total). The tumor appeared only in mice in which treatment had been stopped after 5 weeks.

HT1080 tumor cells = test: Nude mouse xenograft, established HT1080 tumors; type: in vivo, nude mice; conditions: PG490-88 0.75 mg/kg IP days 0-5 and 7-11, CPT-11 11 mg/kg IV days 1, 5, 9
Protocol: Mice. […] Nude mouse xenograft model. HT1080 tumor cells were grown in tissue culture flasks and harvested using EDTA and trypsin. Cells were centrifuged and the concentration of viable cells was appropriately adjusted. […] Tumor size was monitored after tumor cell implantation by measuring the width, length and thickness of the tumors and using a formula to calculate the volume. […] Control mice were left untreated. […] Combination therapy mice received both PG490-88 and CPT-11 treatments.

CC(C)[C@]12O[C@H]1[C@@H]1O[C@]13[C@]1(O[C@H]1C[C@H]1C4=C(CC[C@@]13C)C(=O)OC4)[C@@H]2O [PG490, triptolide]
effect on cell death by carboplatinum (HT1080 cells; A549 and HT1080 cells): enhanced cell death | cytotoxicity at 0.02 µg/mL (HT1080 cells; Homo sapiens, HT-1080, 24 h, read-out: reduction of HT1080 cell viability): 84% | increase in p53 translation (p53 translation): 4.9 fold and 5 fold | cell survival (Dx5 cells; overexpression of Bcl-2): 72% | cell survival (Dx5 cells; vector control): 15% | cytotoxicity at 0.005 µg/mL (p53 null (−/−) MEFs): 15% | cytotoxicity at 0.01 µg/mL (p53 null (−/−) MEFs): 50% | decrease in the level of p21 protein (p21): 3 fold

CC(C)[C@]12O[C@H]1[C@@H]1O[C@]13[C@]1(O[C@H]1C[C@H]1C4=C(CC[C@@]13C)C(=O)OC4)[C@@H]2OC(=O)CCC(=O)[O-].[Na+] [PG490-88, 14-succinyl triptolide sodium salt]
Number of mice in group with a tumor (H23 tumor cells; PG490-88 0.25 mg/kg/day IP, Week 5): 0/5 | Number of mice in group with a tumor (H23 tumor cells; PG490-88 0.25 mg/kg/day IP, Week 6): 1/5 | Number of mice in group with a tumor (H23 tumor cells; PG490-88 0.25 mg/kg/day IP, Week 10): 1/5 | Number of mice in group with a tumor (H23 tumor cells; PG490-88 0.375 mg/kg/day IP, Week 5): 0/5 | Number of mice in group with a tumor (H23 tumor cells; PG490-88 0.375 mg/kg/day IP, Week 6): 1/5 | Number of mice in group with a tumor (H23 tumor cells; PG490-88 0.375 mg/kg/day IP, Week 10): 1/5 | Number of mice in group with a tumor (H23 tumor cells; PG490-88 0.5 mg/kg/day IP, Week 5): 0/5 | Number of mice in group with a tumor (H23 tumor cells; PG490-88 0.5 mg/kg/day IP, Week 6): 1/5 | Number of mice in group with a tumor (H23 tumor cells; PG490-88 0.5 mg/kg/day IP, Week 10): 1/5 | Number of mice in group with a tumor (H23 tumor cells; PG490-88 0.75 mg/kg/day IP, Week 5): 0/5 | Number of mice in group with a tumor (H23 tumor cells; PG490-88 0.75 mg/kg/day IP, Week 6): 0/5 | Number of mice in group with a tumor (H23 tumor cells; PG490-88 0.75 mg/kg/day IP, Week 10): 0/5 | H23 tumor formation (H23 tumor cells; PG490-88 0.75 mg/kg/day, 10 weeks of observation, sodium salt, 0.75 mg/kg/day): No visible tumors developed in any of the mice; also recorded: completely prevented | TV Mean Day 4 (HT1080 tumor cells): 167 | TV Mean Day 7 (HT1080 tumor cells): 208 | TV Mean Day 10 (HT1080 tumor cells): 247 | TV Mean Day 14 (HT1080 tumor cells): 532 | TV Mean Day 0 (HT1080 tumor cells; baseline): 107
